# Data reported in ChEMBL document CHEMBL6096731, “Structure-Guided Optimization and Preclinical Evaluation of 6-O-Benzylguanine-Based Pin1 Inhibitor for Hepatocellular Carcinoma Treatment” (J Med Chem, 2025).
# Active and inactive are the calls of the source. The rule behind the calls is not given here.
# Legend:
# SK-HEP1 [1] = assay: Antitumor activity against human SK-HEP1 cells xenografted in c-Myc/Alb-Cre transgenic female BALB/c mouse model assessed as downregulation of c-myc level in liver at 2.5 mg/kg, po measured every 4 days by immunoblotting analysis; assay type: functional, organism-based; conditions: time 4.0 day
# SK-HEP1 [2] = assay: Antitumor activity against human SK-HEP1 cells xenografted in female BALB/c mouse assessed as increase in pin1 level in kidney at 2.5 mg/kg, po measured every 4 days; assay type: functional, organism-based; conditions: time 4.0 day
# [3] = Toxicity in c-Myc/Alb-Cre transgenic mouse assessed as liver damage at 2.5 mg/kg, po; assay type: organism-based; conditions: in vivo
# SK-HEP1 [4] = assay: Inhibition of cell migration in human SK-HEP1 cells at 5 uM incubated for 24 hrs by wound healing assay; assay type: functional, cell-based
# SK-HEP1 [5] = assay: Antiproliferative activity against human SK-HEP1 cells transfected with human pin1 assessed as cell viability at 5 uM incubated for 72 hrs; assay type: functional, cell-based
# [6] = Toxicity in c-Myc/Alb-Cre transgenic mouse assessed as effect on ALT level at 2.5 mg/kg, po; assay type: organism-based; conditions: in vivo
# Homo sapiens = species on record: Homo sapiens; assay: Inhibition of FKBP12 (unknown origin) expressed in Escherichia coli
# [7] = Drug distribution in BALB/c mouse liver measured after 24 hrs by HPLC analysis; assay type: ADME, tissue-based; conditions: in vivo
# [8] = biological target: Peptidyl-prolyl cis-trans isomerase NIMA-interacting 4 (Homo sapiens) (UniProt Q9Y237); assay: Inhibition of full length pin4 (unknown origin) expressed in Escherichia coli
# SK-HEP1 [9] = assay: Antitumor activity against human SK-HEP1 cells xenografted in female BALB/c mouse assessed as downregulation of c-myc level at 2.5 mg/kg, po measured every 4 days by immunoblotting analysis; assay type: functional, organism-based; conditions: time 4.0 day
# SK-HEP1 [10] = assay: Antiproliferative activity human SK-HEP1 cells assessed as cell viability measured up to 120 hrs; assay type: functional, cell-based
# [11] = biological target: T1, Peptidyl-prolyl cis-trans isomerase NIMA-interacting 1 (Homo sapiens, UniProt Q13526); assay: Inhibition of pin1 in human SK-HEP1 cells at 5 uM by mass spectrometry analysis; assay type: cell-based
# [12] = Toxicity in female BALB/c mouse implanted with human SK-HEP1 cells assessed as effect on body weight at 2.5 mg/kg, po measured every 4 days; assay type: organism-based; conditions: in vivo, 96 h, time 4 day
# SK-HEP1 [13] = assay: Upregulation of miR-122 expression in human SK-HEP1 cells at 5 uM incubated for 36 hrs by RT-PCR analysis; assay type: functional, cell-based
# SK-HEP1 [14] = assay: Antiproliferative activity human SK-HEP1 cells assessed as inhibition of cell proliferation incubated for 120 hrs; assay type: functional, cell-based; conditions: dose <= 2.0 µM
# [15] = biological target: T1, Peptidyl-prolyl cis-trans isomerase NIMA-interacting 1; assay: Inhibition of pin1 in human SK-HEP1 cells assessed as reduction in c-myc level at 5 uM incubated for 24 hrs by immunoblotting analysis; assay type: cell-based
# SK-HEP1 [16] = assay: Antitumor activity against human SK-HEP1 cells xenografted in female BALB/c mouse assessed as increase in pin1 level in spleen at 2.5 mg/kg, po measured every 4 days; assay type: functional, organism-based; conditions: time 4.0 day
# SK-HEP1 [17] = assay: Antitumor activity against human SK-HEP1 cells xenografted in female BALB/c mouse assessed as increase in pin1 level in heart at 2.5 mg/kg, po measured every 4 days; assay type: functional, organism-based; conditions: time 4.0 day
# [18] = Antiproliferative activity against human HCC cells assessed as cell viability incubated for 72 hrs by alamar blue dye based assay; assay type: toxicity; conditions: HCC cells
# SK-HEP1 [19] = assay: Upregulation of miR-29b expression in human SK-HEP1 cells at 5 uM incubated for 36 hrs by RT-PCR analysis; assay type: functional, cell-based
# SK-HEP1 [20] = assay: Antiproliferative activity human SK-HEP1 cells assessed as cell viability measured at 96 hrs; assay type: functional, cell-based
# SK-HEP1 [21] = assay: Inhibition of cell migration in human SK-HEP1 cells at 5 uM incubated for 24 hrs by crystal violet staining based microscopic analysis; assay type: functional
# [22] = Toxicity in c-Myc/Alb-Cre transgenic mouse assessed as effect on TP level at 2.5 mg/kg, po; assay type: organism-based; conditions: in vivo
# SK-HEP1 [23] = assay: Induction of cell cycle arrest in human SK-HEP1 cells assessed as accumulation of cells at S phase by PI staining based flow cytometry analysis; assay type: functional
# [24] = biological target: Peptidyl-prolyl cis-trans isomerase NIMA-interacting 1 (Mus musculus) (UniProt Q9QUR7); assay: Binding affinity to mouse pin1
# [25] = biological target: Peptidyl-prolyl cis-trans isomerase A (Homo sapiens) (UniProt P62937); assay: Inhibition of Cyclophilin A (unknown origin) expressed in Escherichia coli
# [26] = biological target: T1, Peptidyl-prolyl cis-trans isomerase NIMA-interacting 1; assay: Inhibition of pin1 in human SK-HEP1 cells assessed as reduction in beta-catenin level at 5 uM incubated for 24 hrs by immunoblotting analysis; assay type: cell-based
# SK-HEP1 [27] = assay: Antitumor activity against human SK-HEP1 cells xenografted in female BALB/c mouse assessed as reduction in tumor growth at 2.5 mg/kg, po measured every 4 days; assay type: functional, organism-based; conditions: time 4.0 day
# [28] = Toxicity in c-Myc/Alb-Cre transgenic mouse assessed as lung damage at 2.5 mg/kg, po; assay type: organism-based; conditions: in vivo
# [29] = Metabolic stability in mouse microsomes measured after 120 mins; assay type: ADME, Liver, Microsome; conditions: 2 h
# [30] = Toxicity in c-Myc/Alb-Cre transgenic mouse assessed as effect on TBIL level at 2.5 mg/kg, po; assay type: organism-based; conditions: in vivo
# SK-HEP1 [31] = assay: Upregulation of miR-146a expression in human SK-HEP1 cells at 5 uM incubated for 36 hrs by RT-PCR analysis; assay type: functional, cell-based
# SK-HEP1 [32] = assay: Upregulation of let7a expression in human SK-HEP1 cells at 5 uM incubated for 36 hrs by RT-PCR analysis; assay type: functional, cell-based
# [33] = Chemical stability of compound by HPLC analysis; assay type: physicochemical
# [34] = biological target: Voltage-gated inwardly rectifying potassium channel KCNH2 (Homo sapiens, UniProt Q12809)
# [35] = biological target: T1, Peptidyl-prolyl cis-trans isomerase NIMA-interacting 1; assay: Binding affinity to GST-tagged pin1 (unknown origin) assessed as dissociation constant by SPR analysis
# [36] = Drug localization in nucleus of human SK-HEP1 cells at 5 uM incubated for 24 hrs by Hoechst 33342 staining based fluorescence microscopic analysis; assay type: ADME, subcellular; conditions: sk-hep1, 24 h
# [37] = Chemical stability of compound at pH 7 measured after 24 hrs by HPLC analysis; assay type: physicochemical; conditions: buffer, pH 7, 24 h
# [38] = Toxicity in c-Myc/Alb-Cre transgenic mouse assessed as heart damage at 2.5 mg/kg, po; assay type: organism-based; conditions: in vivo
# SK-HEP1 [39] = assay: Antitumor activity against human SK-HEP1 cells xenografted in female BALB/c mouse assessed as downregulation of beta-catenin level at 2.5 mg/kg, po measured every 4 days by immunoblotting analysis; assay type: functional, organism-based; conditions: time 4.0 day
# [40] = Toxicity in c-Myc/Alb-Cre transgenic mouse assessed as spleen damage at 2.5 mg/kg, po; assay type: organism-based; conditions: in vivo
# HCC = assay: Induction of apoptosis in human HCC cells at 5 uM by Annexin V/FITC staining based flow cytometry analysis; assay type: functional, cell-based
# Hep 3B2 = assay: Antiproliferative activity human Hep3B cells assessed as inhibition of cell proliferation incubated for 120 hrs; assay type: functional, cell-based
# SK-HEP1 [41] = assay: Antiproliferative activity human SK-HEP1 cells assessed as cell viability measured at 120 hrs; assay type: functional, cell-based
# [42] = Toxicity in c-Myc/Alb-Cre transgenic mouse assessed as effect on AST level at 2.5 mg/kg, po; assay type: organism-based; conditions: in vivo
# [43] = biological target: T1, Peptidyl-prolyl cis-trans isomerase NIMA-interacting 1; assay: Binding affinity to GST-tagged pin1 (unknown origin) assessed as thermal stabilization at 1 uM at 48 to 58 degreeC by cellular thermal shift assay
# SK-HEP1 [44] = assay: Antitumor activity against human SK-HEP1 cells xenografted in c-Myc/Alb-Cre transgenic female BALB/c mouse model assessed as downregulation of beta-catenin level in liver at 2.5 mg/kg, po measured every 4 days by immunoblotting analysis; assay type: functional, organism-based; conditions: time 4.0 day
# [45] = Toxicity in c-Myc/Alb-Cre transgenic mouse assessed as effect on ALB level at 2.5 mg/kg, po; assay type: organism-based; conditions: in vivo
# [46] = biological target: T1, Peptidyl-prolyl cis-trans isomerase NIMA-interacting 1; assay: Inhibition of full length pin1 (unknown origin) expressed in Escherichia coli
# [47] = Drug distribution in BALB/c mouse tumor measured after 24 hrs by HPLC analysis; assay type: ADME, tissue-based, Neoplasm; conditions: in vivo
# [48] = Toxicity in c-Myc/Alb-Cre transgenic mouse assessed as kidney damage at 2.5 mg/kg, po; assay type: organism-based; conditions: in vivo
# SK-HEP1 [49] = assay: Antitumor activity against human SK-HEP1 cells xenografted in female BALB/c mouse assessed as increase in pin1 level in tumor at 2.5 mg/kg, po measured every 4 days; assay type: functional, organism-based; conditions: time 4.0 day
# SK-HEP1 [50] = assay: Antitumor activity against human SK-HEP1 cells xenografted in female BALB/c mouse assessed as increase in pin1 level in brain at 2.5 mg/kg, po measured every 4 days; assay type: functional, organism-based; conditions: time 4.0 day
# [51] = Toxicity in c-Myc/Alb-Cre transgenic mouse assessed as effect on ALP level at 2.5 mg/kg, po; assay type: organism-based; conditions: in vivo
# SK-HEP1 [52] = assay: Antitumor activity against human SK-HEP1 cells xenografted in female BALB/c mouse assessed as increase in pin1 level in liver at 2.5 mg/kg, po measured every 4 days; assay type: functional, organism-based; conditions: time 4.0 day
# T1 sequence (Q13526 whole entry): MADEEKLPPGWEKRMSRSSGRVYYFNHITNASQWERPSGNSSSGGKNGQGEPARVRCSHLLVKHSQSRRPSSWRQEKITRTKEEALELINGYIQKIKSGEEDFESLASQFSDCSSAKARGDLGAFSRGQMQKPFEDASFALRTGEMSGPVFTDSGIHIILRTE
# Peptidyl-prolyl cis-trans isomerase NIMA-interacting 4 (Homo sapiens), sequence (Q9Y237 whole entry): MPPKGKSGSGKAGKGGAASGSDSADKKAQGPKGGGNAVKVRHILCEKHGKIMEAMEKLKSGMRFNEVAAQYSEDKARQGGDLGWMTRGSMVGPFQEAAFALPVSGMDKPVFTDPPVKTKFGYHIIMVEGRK
# Peptidyl-prolyl cis-trans isomerase A (Homo sapiens), sequence (P62937 whole entry, looked up): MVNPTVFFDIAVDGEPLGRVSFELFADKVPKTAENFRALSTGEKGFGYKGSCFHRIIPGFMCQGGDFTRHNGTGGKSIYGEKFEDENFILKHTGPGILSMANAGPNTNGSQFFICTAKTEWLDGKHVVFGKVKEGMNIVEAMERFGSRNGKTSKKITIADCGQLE
# Voltage-gated inwardly rectifying potassium channel KCNH2, sequence (Q12809 whole entry): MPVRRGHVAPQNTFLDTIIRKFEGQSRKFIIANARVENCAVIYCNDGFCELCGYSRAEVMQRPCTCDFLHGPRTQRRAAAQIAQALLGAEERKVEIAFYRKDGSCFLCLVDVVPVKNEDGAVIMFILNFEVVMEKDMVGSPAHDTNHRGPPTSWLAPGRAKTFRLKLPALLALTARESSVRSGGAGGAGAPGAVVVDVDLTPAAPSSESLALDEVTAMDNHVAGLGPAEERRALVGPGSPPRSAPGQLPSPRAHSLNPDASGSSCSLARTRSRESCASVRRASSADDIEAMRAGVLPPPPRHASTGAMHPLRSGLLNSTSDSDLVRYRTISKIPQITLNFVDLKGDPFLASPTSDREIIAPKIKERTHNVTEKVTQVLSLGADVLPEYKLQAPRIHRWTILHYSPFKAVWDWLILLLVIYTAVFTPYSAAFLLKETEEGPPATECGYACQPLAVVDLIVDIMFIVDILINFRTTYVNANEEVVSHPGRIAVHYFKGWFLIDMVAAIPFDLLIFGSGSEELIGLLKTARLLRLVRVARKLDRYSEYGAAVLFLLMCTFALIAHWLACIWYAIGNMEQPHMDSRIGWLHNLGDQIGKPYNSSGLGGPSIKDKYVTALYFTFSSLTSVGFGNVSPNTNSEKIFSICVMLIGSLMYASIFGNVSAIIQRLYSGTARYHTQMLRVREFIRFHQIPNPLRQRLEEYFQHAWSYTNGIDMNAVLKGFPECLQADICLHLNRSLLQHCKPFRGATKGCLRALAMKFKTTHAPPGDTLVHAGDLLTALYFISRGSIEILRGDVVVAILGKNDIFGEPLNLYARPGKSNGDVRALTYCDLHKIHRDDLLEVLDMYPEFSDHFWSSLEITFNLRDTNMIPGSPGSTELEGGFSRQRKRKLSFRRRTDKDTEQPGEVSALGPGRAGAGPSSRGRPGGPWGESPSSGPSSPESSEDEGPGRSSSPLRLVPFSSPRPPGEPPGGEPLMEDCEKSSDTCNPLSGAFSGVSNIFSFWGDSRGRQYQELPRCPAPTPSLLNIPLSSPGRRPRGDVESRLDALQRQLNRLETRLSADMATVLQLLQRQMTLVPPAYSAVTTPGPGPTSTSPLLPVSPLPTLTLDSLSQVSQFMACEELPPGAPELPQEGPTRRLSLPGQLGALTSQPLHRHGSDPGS
# Peptidyl-prolyl cis-trans isomerase NIMA-interacting 1 (Mus musculus), sequence (Q9QUR7 whole entry): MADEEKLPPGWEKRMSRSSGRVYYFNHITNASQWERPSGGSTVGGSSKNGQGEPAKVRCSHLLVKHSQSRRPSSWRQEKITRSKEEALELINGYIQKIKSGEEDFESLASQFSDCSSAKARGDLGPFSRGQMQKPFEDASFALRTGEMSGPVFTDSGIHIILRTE
compound,measurement,setting,value
Nc1nc(OCc2ccc3c(c2)OCO3)c2nc[nH]c2n1,Activity,SK-HEP1 [1],Active
same,Activity,SK-HEP1 [2],Active
same,Activity,[3],Non-toxic
same,inhibition,SK-HEP1 [4],Active
same,Activity,SK-HEP1 [5],Active
same,Activity,[6],Non-toxic
same,inhibition,Homo sapiens,inactive
same,Drug uptake,[7],Active
same,inhibition,[8],inactive
same,Activity,SK-HEP1 [9],Active
same,Activity,SK-HEP1 [10],Active
same,inhibition,[11],Active
same,Activity,[12],Non-toxic
same,Activity,SK-HEP1 [13],Active
same,Activity,SK-HEP1 [14],Active
same,inhibition,[15],Active
same,Activity,SK-HEP1 [16],Active
same,Activity,SK-HEP1 [17],Active
same,IC50 at 72 h,[18],2600 nM
same,Activity,SK-HEP1 [19],Active
same,Activity,SK-HEP1 [20],Active
same,inhibition,SK-HEP1 [21],Active
same,Activity,[22],Non-toxic
same,Activity,SK-HEP1 [23],Active
same,Activity,[24],Active
same,inhibition,[25],inactive
same,inhibition,[26],Active
same,Activity,SK-HEP1 [27],Active
same,Activity,[28],Non-toxic
same,Stability,[29],Stable
same,Activity,[30],Non-toxic
same,Activity,SK-HEP1 [31],Active
same,Activity,SK-HEP1 [32],Active
same,Stability,[33],Stable
same,IC50,[34],> 30 µM
same,Kd,[35],154 nM
same,Drug uptake,[36],Active
same,Stability,[37],Stable
same,Activity,[38],Non-toxic
same,Activity,SK-HEP1 [39],Active
same,Activity,[40],Non-toxic
same,Activity,HCC,Active
same,Activity,Hep 3B2,Active
same,Activity,SK-HEP1 [41],Active
same,Activity,[42],Non-toxic
same,Activity,[43],Active
same,Activity,SK-HEP1 [44],Active
same,Activity,[45],Non-toxic
same,IC50,[46],64.4 nM
same,Drug uptake,[47],Active
same,Activity,[48],Non-toxic
same,Activity,SK-HEP1 [49],Active
same,Activity,SK-HEP1 [50],Active
same,Activity,[51],Non-toxic
same,Activity,SK-HEP1 [52],Active
